Test results as given in patent US20260070945A1, “MACROCYCLIC IMMUNOMODULATORS” (Bristol-Myers Squibb Company, priority 2022, published 2026).
*1 amine or outer side, *2 acyl side, *3 side chain or, on linkers, in order; H or OH if unused. Where a SMILES comes first, the peptide text is derived from it. Bridges are numbered along the chain shown (N, C = ends). [ ]: non-standard residue; d: D form. The star is where a group is joined. ξ: configuration not given here. Phe(3-CF3) = N[C@@H](Cc1cccc(C(F)(F)F)c1)C(=O)O; Ala(morpholin-4-yl) = N[C@@H](CN1CCOCC1)C(=O)O; Phe(4-COOH) = N[C@@H](Cc1ccc(C(=O)O)cc1)C(=O)O; Bip = N[C@@H](Cc1ccc(-c2ccccc2)cc1)C(=O)O; Phe(3-Me) = Cc1cccc(C[C@H](N)C(=O)O)c1; γGlu = O=C(O)[C@H](CCC(=O)[*:2])N[*:1]; NH(CH2)12COOH = O=C(O)CCCCCCCCCCCCN*; Val(3-OH) = CC(C)(O)[C@H](N)C(=O)O; X6 = O=C(Cc1ccc(CN[*:1])cc1)[*:2]; Cha = N[C@@H](CC1CCCCC1)C(=O)O; Cit = NC(=O)NCCC[C@H](N)C(=O)O; Thr(3ξ) = CC(O)[C@H](N)C(=O)O; 12Ado = NCCCCCCCCCCCC(=O)O; Carboxymethyl = O=C(O)C*; NMeA = CN[C@@H](C)C(=O)O; Orn = NCCC[C@H](N)C(=O)O; Aun = NCCCCCCCCCCC(=O)O; Dab = NCC[C@H](N)C(=O)O; AEEA = NCCOCCOCC(=O)O

These compounds were tested against T1, PD-1/PD-L1 interaction (PE-labeled human PD-L1-Ig binding to Jurkat cell line over-expressing human PD-1) (Homo sapiens, UniProt Q15116) (assay: Jurkat-PD-1 Cell Binding High-Content Screening Assay (CBA)). Conditions: Jurkat-hPD-1 cells, PE-labeled PD-L1-Ig 20 nM final; read-out: Jurkat HPD1 PDL1 IC50.
T1 construct: expressed in transfected cells; host or cells: Jurkat
Outline: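 Jurkat cells overexpressing human PD-1 (8×10^3/well, DMEM + 10% FCS) preincubated with compound 2 h at 37 °C, then PE-labelled human PD-L1-Ig (20 nM final) for 1 h. Cells fixed in paraformaldehyde with Hoechst 33342; bound PD-L1 quantified by high-content imaging.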

T1 sequence (Q15116 25-288): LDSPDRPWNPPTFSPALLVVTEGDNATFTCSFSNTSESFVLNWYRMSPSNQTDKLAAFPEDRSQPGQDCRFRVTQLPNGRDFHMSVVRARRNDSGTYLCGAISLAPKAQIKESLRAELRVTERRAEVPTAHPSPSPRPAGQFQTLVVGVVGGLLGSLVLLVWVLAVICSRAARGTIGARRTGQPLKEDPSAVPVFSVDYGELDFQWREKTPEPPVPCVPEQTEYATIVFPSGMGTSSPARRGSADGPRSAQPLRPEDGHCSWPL

Row | IC50 | SMILES
1 | 0.028 µM | CC(C)C[C@@H]1NC(=O)[C@H](Cc2c[nH]c3ccccc23)NC(=O)[C@H](CC(=O)O)NC(=O)[C@H](Cc2ccc(C(=O)O)cc2)NC(=O)[C@H](Cc2ccc(OCC(=O)O)cc2)NC(=O)CSC[C@@H](C(=O)N[C@@H](CCCN)C(=O)NCc2ccc(CC(=O)NCCCCCCCCCCC(=O)O)cc2)NC(=O)[C@H](CO)NC(=O)[C@H](C(C)C)NC(=O)[C@H](CC2CCCCC2)NC(=O)[C@H](CCN)NC(=O)[C@@H](CC(C)C)NC(=O)[C@H](C)N(C)C(=O)[C@H](C(C)C)NC(=O)[C@H](Cc2ccc(-c3ccccc3)cc2)NC1=O [Example 1243] ({CH2CO}-Y(Carboxymethyl)[Phe(4-COOH)]DWL[Bip]V[NMeA][dL][Dab][Cha]VSC[Orn][X6][Aun]-OH; thioether N-14)
2 | 0.048 µM | CC(C)C[C@@H]1NC(=O)[C@H](Cc2c[nH]c3ccccc23)NC(=O)[C@H](CC(=O)O)NC(=O)[C@H](Cc2ccc(C(=O)O)cc2)NC(=O)[C@H](Cc2ccc(OCC(=O)O)cc2)NC(=O)CSC[C@@H](C(=O)NCCOCCOCC(=O)NCCCCCCCCCCC(=O)O)NC(=O)[C@H](CCCNC(N)=O)NC(=O)[C@H](C(C)C)NC(=O)[C@H](CC2CCCCC2)NC(=O)[C@H](CCN)NC(=O)[C@@H](CC(C)C)NC(=O)[C@H](C)N(C)C(=O)[C@H](Cc2ccc(O)cc2)NC(=O)[C@H](Cc2ccc(-c3ccccc3)cc2)NC1=O [Example 1101] ({CH2CO}-Y(Carboxymethyl)[Phe(4-COOH)]DWL[Bip]Y[NMeA][dL][Dab][Cha]V[Cit]C[AEEA][Aun]-OH; thioether N-14)
3 | 0.0427 µM | Cc1cccc(C[C@@H]2NC(=O)[C@H](CC(=O)O)NC(=O)[C@H](Cc3ccc(C(=O)O)cc3)NC(=O)[C@H]([C@@H](C)O)NC(=O)CSC[C@@H](C(=O)N[C@@H](CCN)C(=O)NCCOCCOCC(=O)NCCOCCOCC(=O)NCCCCCCCCCCCCC(=O)O)NC(=O)[C@H](CCC(=O)O)NC(=O)[C@H](C(C)(C)O)NC(=O)[C@H](CC3CCCCC3)NC(=O)[C@H](CCN)NC(=O)[C@@H](CC(C)C)NC(=O)[C@H](C)N(C)C(=O)[C@H](Cc3ccc(C(=O)O)cc3)NC(=O)[C@H](Cc3ccc(-c4ccccc4)cc3)NC(=O)[C@H](Cc3ccc(C(=O)O)cc3)NC2=O)c1 [Example 1430] ({CH2CO}-T[Phe(4-COOH)]D[Phe(3-Me)][Phe(4-COOH)][Bip][Phe(4-COOH)][NMeA][dL][Dab][Cha][Val(3-OH)]EC[Dab][AEEA][AEEA]-{NH(CH2)12COOH}; thioether N-14)
4 | 0.0196 µM | CC(C)C[C@H]1NC(=O)[C@H](C)N(C)C(=O)[C@H](Cc2ccc(C(=O)O)cc2)NC(=O)[C@H](Cc2ccc(-c3ccccc3)cc2)NC(=O)[C@H](Cc2ccc(C(=O)O)cc2)NC(=O)[C@H](Cc2cccc(C(F)(F)F)c2)NC(=O)[C@H](CC(=O)O)NC(=O)[C@H](Cc2ccc(OCC(=O)O)cc2)NC(=O)[C@H](CN2CCOCC2)NC(=O)CSC[C@@H](C(=O)N[C@@H](CCN)C(=O)NCCCCCCCCCCCCC(=O)O)NC(=O)[C@H](CCC(=O)O)NC(=O)[C@H](C(C)C)NC(=O)[C@H](CC2CCCCC2)NC(=O)[C@H](CCN)NC1=O [Example 1198] ({CH2CO}-[Ala(morpholin-4-yl)]Y(Carboxymethyl)D[Phe(3-CF3)][Phe(4-COOH)][Bip][Phe(4-COOH)][NMeA][dL][Dab][Cha]VEC[Dab]-{NH(CH2)12COOH}; thioether N-14)

Second part, the compound before the results:

Row | SMILES | IC50
5 | COC[C@@H]1NC(=O)CSC[C@@H](C(=O)N[C@@H](CCN)C(=O)NCCOCCOCC(=O)N[C@@H](CCC(=O)NCCOCCOCC(=O)NCCCCCCCCCCCCC(=O)O)C(=O)O)NC(=O)[C@H](CO)NC(=O)[C@H](C(C)(C)O)NC(=O)[C@H](CC2CCCCC2)NC(=O)[C@H](CCN)NC(=O)[C@@H](CC(C)C)NC(=O)[C@H](C)N(C)C(=O)[C@H](CCC(N)=O)NC(=O)[C@H](Cc2ccc(-c3ccccc3)cc2)NC(=O)[C@H](Cc2ccc(C(=O)O)cc2)NC(=O)[C@H](Cc2cccc(C(F)(F)F)c2)NC(=O)[C@H](CC(=O)O)NC(=O)[C@H](Cc2ccc(OCC(=O)O)cc2)NC1=O [Example 1164] ({CH2CO}-S(Me)Y(Carboxymethyl)D[Phe(3-CF3)][Phe(4-COOH)][Bip]Q[NMeA][dL][Dab][Cha][Val(3-OH)]SC[Dab][AEEA][γGlu][AEEA]-{NH(CH2)12COOH}; thioether N-14) | 0.0089 µM
6 | CC(=O)NCCCC[C@@H]1NC(=O)[C@H](Cc2ccc(-c3ccccc3)cc2)NC(=O)[C@H](C(C)C)NC(=O)[C@H](Cc2c[nH]c3ccccc23)NC(=O)[C@H](CC(=O)O)NC(=O)[C@H](Cc2ccc(OCC(=O)O)cc2)NC(=O)[C@H](C(C)O)NC(=O)CSC[C@@H](C(=O)N[C@@H](CCCN)C(=O)N[C@@H](CO)C(=O)NCCCCCCCCCCCC(=O)O)NC(=O)[C@H](C(C)O)NC(=O)[C@H](C(C)C)NC(=O)[C@H](CC2CCCCC2)NC(=O)[C@H](CCN)NC(=O)[C@@H](CC(C)C)NC(=O)[C@H](C)N(C)C1=O (stereo partly drawn) [Example 2405] ({CH2CO}-[Thr(3ξ)]Y(Carboxymethyl)DWV[Bip]K(Ac)[NMeA][dL][Dab][Cha]V[Thr(3ξ)]C[Orn]S[12Ado]-OH; thioether N-14) | 0.0753 µM

Same assay, conditions: PE-labeled PD-L1-Ig 20 nM final, Jurkat-hPD-1 cells; read-out: Jurkat HPD1 PDL1 IC50

Row | SMILES | IC50
7 | Cc1cccc(C[C@@H]2NC(=O)[C@H](CC(=O)O)NC(=O)[C@H](Cc3ccc(C(=O)O)cc3)NC(=O)[C@H](C(C)O)NC(=O)CSC[C@@H](C(=O)N[C@@H](CCN)C(=O)NCCOCCOCC(=O)NCCCCCCCCCCC(=O)O)NC(=O)[C@H](CCC(=O)O)NC(=O)[C@H](C(C)C)NC(=O)[C@H](CC3CCCCC3)NC(=O)[C@H](CCN)NC(=O)[C@@H](CC(C)C)NC(=O)[C@H](C)N(C)C(=O)[C@H](Cc3ccc(C(=O)O)cc3)NC(=O)[C@H](Cc3ccc(-c4ccccc4)cc3)NC(=O)[C@H](Cc3ccc(C(=O)O)cc3)NC2=O)c1 (stereo partly drawn) [Example 2547] ({CH2CO}-[Thr(3ξ)][Phe(4-COOH)]D[Phe(3-Me)][Phe(4-COOH)][Bip][Phe(4-COOH)][NMeA][dL][Dab][Cha]VEC[Dab][AEEA][Aun]-OH; thioether N-14) | 0.0149 µM
8 | CC(C)C[C@@H]1NC(=O)[C@H](Cc2c[nH]c3ccccc23)NC(=O)[C@H](CC(=O)O)NC(=O)[C@H](Cc2ccc(OCC(=O)O)cc2)NC(=O)[C@H](Cc2ccc(OCC(=O)O)cc2)NC(=O)CSC[C@@H](C(=O)NCCOCCOCC(=O)NCCCCCCCCCCC(=O)O)NC(=O)[C@H](Cc2cnc[nH]2)NC(=O)[C@H](CO)NC(=O)[C@H](CC2CCCCC2)NC(=O)[C@H](CCN)NC(=O)[C@@H](CC(C)C)NC(=O)[C@H](C)N(C)C(=O)[C@H](C(C)C)NC(=O)[C@H](Cc2ccc(-c3ccccc3)cc2)NC1=O [Example 2436] ({CH2CO}-Y(Carboxymethyl)Y(Carboxymethyl)DWL[Bip]V[NMeA][dL][Dab][Cha]SHC[AEEA][Aun]-OH; thioether N-14) | 0.0314 µM
9 | CC(C)C[C@H]1NC(=O)[C@H](C)N(C)C(=O)[C@H](CCC(N)=O)NC(=O)[C@H](Cc2ccc(-c3ccccc3)cc2)NC(=O)[C@H](Cc2ccc(OCC(=O)O)cc2)NC(=O)[C@H](Cc2cccc(C(F)(F)F)c2)NC(=O)[C@H](CC(=O)O)NC(=O)[C@H](Cc2ccc(OCC(=O)O)cc2)NC(=O)[C@H](C)NC(=O)CSC[C@@H](C(=O)N[C@@H](CCN)C(=O)NCCCCCCCCCCCCC(=O)O)NC(=O)[C@H](CCC(=O)O)NC(=O)[C@H](C(C)(C)O)NC(=O)[C@H](CC2CCCCC2)NC(=O)[C@H](CCN)NC1=O [Example 2629] ({CH2CO}-AY(Carboxymethyl)D[Phe(3-CF3)]Y(Carboxymethyl)[Bip]Q[NMeA][dL][Dab][Cha][Val(3-OH)]EC[Dab]-{NH(CH2)12COOH}; thioether N-14) | 0.0306 µM
